# Reference: doi:10.1101/2021.04.08.439011v1 (biorxiv, 2021)
# Columns and labels:
# Conditions in all cases: 1 µM; binder
# LIMK1 = LIMK1 (Homo sapiens, UniProt P53667)
# TGFBR2 = TGFBR2 (Homo sapiens, UniProt P37173)
# MYLK4 = MYLK4 (Homo sapiens, UniProt Q86YV6)
# ADCK3 = ADCK3 (Homo sapiens, UniProt Q8NI60)
# AURKB = AURKB (Homo sapiens, UniProt Q96GD4)
# AURKC = AURKC (Homo sapiens, UniProt Q9UQB9)
# NEK2 = NEK2 (Homo sapiens, UniProt P51955)
# PIK3C2B = PIK3C2B (Homo sapiens, UniProt O00750)
# RIOK3 = RIOK3 (Homo sapiens, UniProt O14730)
# TESK1 = TESK1 (Homo sapiens, UniProt Q15569)
# MAP4K3 = MAP4K3 (Homo sapiens, UniProt Q8IVH8)
# TRKA = TRKA (Homo sapiens, UniProt P04629)
# HIPK2 = HIPK2 (Homo sapiens, UniProt Q9H2X6)
# CAMK2D = CAMK2D (Homo sapiens, UniProt Q13557)
# PIK3CA(E545A) = PIK3CA(E545A) (Homo sapiens, UniProt P42336, E545A)
# MAP4K2 = MAP4K2 (Homo sapiens, UniProt Q12851)
# MAP3K1 = MAP3K1 (Homo sapiens, UniProt Q13233)
# PLK1 = PLK1 (Homo sapiens, UniProt P53350)
# PIK3CA(E545K) = PIK3CA(E545K) (Homo sapiens, UniProt P42336, E545K)
# HIPK1 = HIPK1 (Homo sapiens, UniProt Q86Z02)
# PRKR = PRKR (Homo sapiens, UniProt P19525)
# MYLK3 = MYLK3 (Homo sapiens, UniProt Q32MK0)
# HIPK4 = HIPK4 (Homo sapiens, UniProt Q8NE63)
# NLK = NLK (Homo sapiens, UniProt Q9UBE8)
# SGK2 = SGK2 (Homo sapiens, UniProt Q9HBY8)
# ACVR1B = ACVR1B (Homo sapiens, UniProt P36896)
# NEK7 = NEK7 (Homo sapiens, UniProt Q8TDX7)
# EPHA5 = EPHA5 (Homo sapiens, UniProt P54756)
# FGFR2 = FGFR2 (Homo sapiens, UniProt P21802)
# FLT4 = FLT4 (Homo sapiens, UniProt P35916)
# Sequence of EPHA5 (P54756 whole entry): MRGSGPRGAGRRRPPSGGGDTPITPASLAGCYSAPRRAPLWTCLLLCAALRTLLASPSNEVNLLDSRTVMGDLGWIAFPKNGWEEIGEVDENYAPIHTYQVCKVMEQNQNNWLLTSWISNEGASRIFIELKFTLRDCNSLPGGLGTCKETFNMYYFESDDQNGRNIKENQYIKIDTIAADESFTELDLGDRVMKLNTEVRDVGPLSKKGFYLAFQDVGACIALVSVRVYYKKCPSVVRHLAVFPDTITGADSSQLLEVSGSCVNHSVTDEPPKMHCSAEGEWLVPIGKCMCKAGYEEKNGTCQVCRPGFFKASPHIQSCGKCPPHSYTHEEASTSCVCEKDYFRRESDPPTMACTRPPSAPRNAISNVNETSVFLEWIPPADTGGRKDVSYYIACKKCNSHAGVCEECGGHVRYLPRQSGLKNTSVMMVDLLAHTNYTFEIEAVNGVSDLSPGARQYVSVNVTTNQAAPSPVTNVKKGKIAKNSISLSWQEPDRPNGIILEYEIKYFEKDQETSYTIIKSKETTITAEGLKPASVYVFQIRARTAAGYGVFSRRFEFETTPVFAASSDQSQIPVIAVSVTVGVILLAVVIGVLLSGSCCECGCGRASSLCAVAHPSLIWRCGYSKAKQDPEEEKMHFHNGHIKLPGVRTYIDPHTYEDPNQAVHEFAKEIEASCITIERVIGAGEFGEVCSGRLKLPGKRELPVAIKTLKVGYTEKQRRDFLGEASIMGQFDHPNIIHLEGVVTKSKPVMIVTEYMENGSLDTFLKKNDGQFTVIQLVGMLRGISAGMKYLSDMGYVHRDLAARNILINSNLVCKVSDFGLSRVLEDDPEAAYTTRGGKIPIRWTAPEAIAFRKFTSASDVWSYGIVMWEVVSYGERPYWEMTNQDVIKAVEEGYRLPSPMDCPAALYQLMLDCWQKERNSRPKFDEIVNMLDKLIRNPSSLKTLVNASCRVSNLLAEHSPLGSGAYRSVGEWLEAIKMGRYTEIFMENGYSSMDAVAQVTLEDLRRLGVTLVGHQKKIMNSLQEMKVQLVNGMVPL
# Sequence of NEK2 (P51955 whole entry): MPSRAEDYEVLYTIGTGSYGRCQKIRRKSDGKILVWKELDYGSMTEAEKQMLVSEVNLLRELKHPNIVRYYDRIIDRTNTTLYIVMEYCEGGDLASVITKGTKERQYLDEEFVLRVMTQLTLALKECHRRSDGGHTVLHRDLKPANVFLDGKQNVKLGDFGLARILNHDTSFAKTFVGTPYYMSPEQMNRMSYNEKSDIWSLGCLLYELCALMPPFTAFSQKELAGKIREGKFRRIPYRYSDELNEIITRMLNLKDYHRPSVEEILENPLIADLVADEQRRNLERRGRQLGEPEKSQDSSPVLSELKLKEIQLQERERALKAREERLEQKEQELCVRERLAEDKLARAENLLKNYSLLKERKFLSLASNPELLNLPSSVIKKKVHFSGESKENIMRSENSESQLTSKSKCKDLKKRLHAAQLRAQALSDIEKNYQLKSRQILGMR
# Sequence of HIPK2 (Q9H2X6 whole entry): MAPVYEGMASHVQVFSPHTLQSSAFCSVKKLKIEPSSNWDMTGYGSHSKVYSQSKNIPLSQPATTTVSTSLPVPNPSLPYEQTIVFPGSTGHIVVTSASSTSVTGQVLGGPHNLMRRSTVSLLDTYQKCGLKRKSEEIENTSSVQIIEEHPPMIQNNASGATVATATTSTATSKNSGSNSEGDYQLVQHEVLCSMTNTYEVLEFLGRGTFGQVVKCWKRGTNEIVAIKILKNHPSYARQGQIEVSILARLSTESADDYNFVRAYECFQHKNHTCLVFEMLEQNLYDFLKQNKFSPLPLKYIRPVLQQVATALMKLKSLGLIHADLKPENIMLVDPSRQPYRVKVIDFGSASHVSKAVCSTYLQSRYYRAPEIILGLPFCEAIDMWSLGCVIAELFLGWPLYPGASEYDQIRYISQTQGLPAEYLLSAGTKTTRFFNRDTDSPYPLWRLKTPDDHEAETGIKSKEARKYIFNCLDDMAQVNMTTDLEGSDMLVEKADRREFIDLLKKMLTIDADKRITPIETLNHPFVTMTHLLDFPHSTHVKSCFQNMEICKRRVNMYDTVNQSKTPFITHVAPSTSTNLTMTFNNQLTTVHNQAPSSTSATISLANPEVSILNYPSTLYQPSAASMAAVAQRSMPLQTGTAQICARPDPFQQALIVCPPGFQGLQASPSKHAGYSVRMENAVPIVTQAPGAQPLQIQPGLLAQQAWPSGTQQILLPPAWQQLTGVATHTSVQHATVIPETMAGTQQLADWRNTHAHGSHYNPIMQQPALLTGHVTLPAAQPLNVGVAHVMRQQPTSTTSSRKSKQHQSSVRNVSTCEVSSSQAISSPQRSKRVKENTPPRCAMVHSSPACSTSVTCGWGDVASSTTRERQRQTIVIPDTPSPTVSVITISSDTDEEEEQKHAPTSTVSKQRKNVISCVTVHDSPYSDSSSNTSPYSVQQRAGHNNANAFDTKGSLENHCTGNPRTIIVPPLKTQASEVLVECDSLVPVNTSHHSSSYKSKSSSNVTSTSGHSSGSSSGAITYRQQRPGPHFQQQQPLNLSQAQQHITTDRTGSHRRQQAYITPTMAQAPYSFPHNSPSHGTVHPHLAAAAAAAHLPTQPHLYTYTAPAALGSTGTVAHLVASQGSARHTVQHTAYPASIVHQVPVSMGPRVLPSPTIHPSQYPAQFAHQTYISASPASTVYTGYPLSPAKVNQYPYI
# Sequence of TESK1 (Q15569 whole entry): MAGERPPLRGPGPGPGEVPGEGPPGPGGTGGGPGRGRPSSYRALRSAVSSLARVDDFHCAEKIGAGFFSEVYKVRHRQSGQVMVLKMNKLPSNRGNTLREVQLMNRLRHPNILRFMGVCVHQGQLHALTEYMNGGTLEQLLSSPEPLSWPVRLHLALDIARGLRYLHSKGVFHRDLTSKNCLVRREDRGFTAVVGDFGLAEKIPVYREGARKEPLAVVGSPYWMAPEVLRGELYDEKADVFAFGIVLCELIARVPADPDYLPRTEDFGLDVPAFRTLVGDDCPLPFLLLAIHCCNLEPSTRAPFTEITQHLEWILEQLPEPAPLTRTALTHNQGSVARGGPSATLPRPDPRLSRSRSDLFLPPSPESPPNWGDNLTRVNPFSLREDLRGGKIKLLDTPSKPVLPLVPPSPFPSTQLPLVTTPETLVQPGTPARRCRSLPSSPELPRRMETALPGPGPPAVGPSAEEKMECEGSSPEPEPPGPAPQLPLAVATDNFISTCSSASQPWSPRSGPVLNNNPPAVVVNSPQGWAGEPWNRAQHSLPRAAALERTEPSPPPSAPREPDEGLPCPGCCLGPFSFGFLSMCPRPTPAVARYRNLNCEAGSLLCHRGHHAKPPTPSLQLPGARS
# Sequence of HIPK4 (Q8NE63 whole entry): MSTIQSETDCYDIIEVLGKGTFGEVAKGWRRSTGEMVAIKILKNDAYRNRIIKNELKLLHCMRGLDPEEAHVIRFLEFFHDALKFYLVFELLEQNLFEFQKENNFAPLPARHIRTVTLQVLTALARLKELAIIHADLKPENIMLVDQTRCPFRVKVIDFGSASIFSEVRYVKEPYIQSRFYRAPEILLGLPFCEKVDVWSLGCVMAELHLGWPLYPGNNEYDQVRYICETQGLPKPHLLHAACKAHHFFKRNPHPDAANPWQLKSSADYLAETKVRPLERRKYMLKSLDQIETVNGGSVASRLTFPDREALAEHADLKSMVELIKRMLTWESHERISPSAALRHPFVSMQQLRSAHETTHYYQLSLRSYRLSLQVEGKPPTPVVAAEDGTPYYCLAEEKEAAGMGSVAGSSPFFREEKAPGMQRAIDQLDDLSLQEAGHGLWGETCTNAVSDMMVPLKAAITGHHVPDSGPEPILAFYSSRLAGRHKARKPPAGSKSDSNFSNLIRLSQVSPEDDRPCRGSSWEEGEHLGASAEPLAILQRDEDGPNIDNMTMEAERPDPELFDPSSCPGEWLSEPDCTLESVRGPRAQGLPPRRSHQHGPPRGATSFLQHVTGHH
# Sequence of MAP4K2 (Q12851 whole entry): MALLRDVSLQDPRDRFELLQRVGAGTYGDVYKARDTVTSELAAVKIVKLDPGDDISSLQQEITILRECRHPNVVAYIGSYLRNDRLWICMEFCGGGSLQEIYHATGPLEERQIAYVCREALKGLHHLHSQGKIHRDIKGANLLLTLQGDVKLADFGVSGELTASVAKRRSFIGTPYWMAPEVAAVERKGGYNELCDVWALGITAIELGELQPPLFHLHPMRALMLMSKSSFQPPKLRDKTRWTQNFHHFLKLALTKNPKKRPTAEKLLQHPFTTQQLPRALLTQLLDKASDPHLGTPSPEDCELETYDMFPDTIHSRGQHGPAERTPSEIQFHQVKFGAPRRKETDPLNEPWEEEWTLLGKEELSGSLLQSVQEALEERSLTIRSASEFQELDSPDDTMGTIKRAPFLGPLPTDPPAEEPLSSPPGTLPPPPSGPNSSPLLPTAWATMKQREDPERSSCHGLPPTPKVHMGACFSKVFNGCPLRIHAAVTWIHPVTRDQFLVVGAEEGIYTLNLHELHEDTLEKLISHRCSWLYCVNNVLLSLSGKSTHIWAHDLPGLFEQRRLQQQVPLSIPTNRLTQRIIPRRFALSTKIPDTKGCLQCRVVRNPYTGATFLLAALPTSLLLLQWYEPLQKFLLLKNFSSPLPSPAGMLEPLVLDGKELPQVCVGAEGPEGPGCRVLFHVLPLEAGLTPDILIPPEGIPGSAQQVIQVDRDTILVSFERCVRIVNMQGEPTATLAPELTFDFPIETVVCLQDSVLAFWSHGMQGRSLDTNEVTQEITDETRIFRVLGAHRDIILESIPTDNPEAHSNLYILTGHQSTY
# Sequence of NEK7 (Q8TDX7 whole entry): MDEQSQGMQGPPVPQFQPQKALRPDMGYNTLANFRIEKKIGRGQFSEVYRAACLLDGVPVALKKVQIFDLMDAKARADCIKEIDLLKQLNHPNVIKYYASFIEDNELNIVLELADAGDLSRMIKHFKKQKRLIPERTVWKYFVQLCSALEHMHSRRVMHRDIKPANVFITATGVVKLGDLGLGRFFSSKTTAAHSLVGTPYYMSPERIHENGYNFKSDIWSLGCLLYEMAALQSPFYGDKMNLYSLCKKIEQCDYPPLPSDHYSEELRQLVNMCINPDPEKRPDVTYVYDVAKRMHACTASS
smiles,measurement,setting,value
"CNc1ncc2cc(-c3ccc(-c4cccc(C)n4)cc3Cl)c(=O)n(C[C@H]3OC[C@H](N)CO3)c2n1 [compound 6, G-5555]",Percent Control,LIMK1,59%
same,Percent Control,TGFBR2,100%
same,Percent Control,MYLK4,100%
same,Percent Control,ADCK3,100%
same,Percent Control,AURKB,23%
same,Percent Control,AURKC,20%
same,Percent Control,NEK2,60%
same,Percent Control,PIK3C2B,100%
same,Percent Control,RIOK3,90%
same,Percent Control,TESK1,99%
same,Percent Control,MAP4K3,23%
same,Percent Control,TRKA,64%
same,Percent Control,HIPK2,100%
same,Percent Control,CAMK2D,100%
same,Percent Control,PIK3CA(E545A),90%
same,Percent Control,MAP4K2,32%
same,Percent Control,MAP3K1,98%
same,Percent Control,PLK1,94%
same,Percent Control,PIK3CA(E545K),97%
same,Percent Control,HIPK1,100%
same,Percent Control,PRKR,94%
same,Percent Control,MYLK3,100%
same,Percent Control,HIPK4,100%
same,Percent Control,NLK,17%
same,Percent Control,SGK2,100%
same,Percent Control,ACVR1B,96%
same,Percent Control,NEK7,100%
same,Percent Control,EPHA5,100%
same,Percent Control,FGFR2,100%
same,Percent Control,FLT4,100%
